Our source for the IC50 values is patent US10882829B2, “Pharmaceutical compounds” (Sareum Limited, priority 2012, dated 2021).

Molecules are shown by their SMILES.

Holding throughout (format): biochemical
One test deals with JAK1 (Homo sapiens (Human), UniProt P23458). The test is described as follows: JAK1 kinase inhibition assay (33P-ATP, Reaction Biology Corp.). The following applies: substrate pEY, 120 min at room temperature, read-out: In Vitro Enzyme IC50 (nM) JAK1. As for the experimental part: (§1) Compounds of the invention were assayed for their ability to inhibit TYK2 kinase and other JAK kinases.
(§2) Substrates and kinases used in the assays are identified in Table 2 below.

The target in another test is JAK3 (Homo sapiens (Human), UniProt P52333). As to the kind of experiment: JAK3 kinase inhibition assay (33P-ATP, Reaction Biology Corp.). The following applies: substrate JAK3tide, 120 min at room temperature, read-out: In Vitro Enzyme IC50 (nM) JAK3. As for the experimental part:
as §1, §2

The next test addresses TYK2 kinase (Homo sapiens (Human), UniProt P29597). As to the kind of experiment: TYK2 kinase inhibition assay (33P-ATP, Reaction Biology Corp.). The following applies: substrate AXLtide, 120 min at room temperature, read-out: In Vitro Enzyme IC50 (nM) TYK2. On the procedure: as §1, §2
A further test addresses JAK2 (Homo sapiens (Human), UniProt O60674). As to the kind of experiment: JAK2 kinase inhibition assay (33P-ATP, Reaction Biology Corp.). The following applies: substrate pEY, 120 min at room temperature, read-out: In Vitro Enzyme IC50 (nM) JAK2. On the procedure: as §1, §2

Sequence of JAK1 (P23458 866-1154): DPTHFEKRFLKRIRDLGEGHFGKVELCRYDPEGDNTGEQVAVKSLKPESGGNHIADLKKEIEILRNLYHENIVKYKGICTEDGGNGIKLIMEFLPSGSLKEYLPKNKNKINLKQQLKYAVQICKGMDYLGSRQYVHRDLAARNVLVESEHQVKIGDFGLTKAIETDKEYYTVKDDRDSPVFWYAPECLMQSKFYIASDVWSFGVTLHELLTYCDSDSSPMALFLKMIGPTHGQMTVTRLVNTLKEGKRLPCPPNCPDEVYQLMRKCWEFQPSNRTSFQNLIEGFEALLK
Sequence of TYK2 kinase (P29597 833-1187): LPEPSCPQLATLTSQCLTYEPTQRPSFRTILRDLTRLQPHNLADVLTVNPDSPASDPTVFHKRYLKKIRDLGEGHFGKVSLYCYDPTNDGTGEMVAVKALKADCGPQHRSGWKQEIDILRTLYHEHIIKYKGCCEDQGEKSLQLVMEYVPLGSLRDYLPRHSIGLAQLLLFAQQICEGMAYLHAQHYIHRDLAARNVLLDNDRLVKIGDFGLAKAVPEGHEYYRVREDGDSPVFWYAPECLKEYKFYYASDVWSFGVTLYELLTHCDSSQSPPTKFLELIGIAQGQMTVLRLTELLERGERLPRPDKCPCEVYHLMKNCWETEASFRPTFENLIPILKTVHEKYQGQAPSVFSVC
Sequence of JAK3 (P52333 781-1124): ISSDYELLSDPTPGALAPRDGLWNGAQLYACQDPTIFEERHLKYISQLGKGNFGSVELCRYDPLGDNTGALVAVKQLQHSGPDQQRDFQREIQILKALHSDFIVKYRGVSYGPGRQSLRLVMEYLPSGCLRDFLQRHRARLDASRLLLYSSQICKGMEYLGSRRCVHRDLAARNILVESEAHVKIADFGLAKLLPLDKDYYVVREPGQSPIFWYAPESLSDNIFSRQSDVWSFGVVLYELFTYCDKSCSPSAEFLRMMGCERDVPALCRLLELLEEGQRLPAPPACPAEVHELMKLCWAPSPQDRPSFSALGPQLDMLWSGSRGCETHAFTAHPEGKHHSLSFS
Sequence of JAK2 (O60674 809-1132): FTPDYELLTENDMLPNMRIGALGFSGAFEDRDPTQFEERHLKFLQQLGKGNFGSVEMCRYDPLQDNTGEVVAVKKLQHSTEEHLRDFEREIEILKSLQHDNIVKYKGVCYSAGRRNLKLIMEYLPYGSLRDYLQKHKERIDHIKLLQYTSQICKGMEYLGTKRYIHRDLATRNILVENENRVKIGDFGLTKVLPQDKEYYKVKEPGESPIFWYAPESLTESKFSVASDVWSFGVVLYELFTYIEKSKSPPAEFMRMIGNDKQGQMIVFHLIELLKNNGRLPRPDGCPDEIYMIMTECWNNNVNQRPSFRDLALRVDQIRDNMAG

A word on the IC50: it is the concentration that gives 50% inhibition. On to `CS(=O)(=O)c1ccc(Nc2oc(-c3c(F)cccc3F)nc2C(N)=O)cc1` [Example 1, 2-(2,6-difluorophenyl)-5-(4-(methylsulfonyl)phenylamino)oxazole-4-carboxamide], for which the IC50 is 90.2 nM at JAK1, 405 nM on JAK3, 13.5 nM at TYK2 kinase and 235 nM at JAK2.
As for `NC(=O)c1nc(-c2c(F)cccc2F)oc1Nc1ccc(S(N)(=O)=O)cc1` [Example 2, 2-(2,6-difluorophenyl)-5-(4-sulfamoylphenylamino)oxazole-4-carboxamide], the IC50 on JAK1 is 78.2 nM; at JAK3 it was 419 nM; on TYK2 kinase it was 14.6 nM; on JAK2, 147 nM.
For the compound `CN(C)S(=O)(=O)c1ccc(Nc2oc(-c3c(F)cccc3F)nc2C(N)=O)cc1` [Example 3, 2-(2,6-difluorophenyl)-5-(4-(N,N-dimethylsulfamoyl)phenylamino)oxazole-4-carboxamide], the IC50 at JAK1 was 47.6 nM; on JAK3 it was 359 nM; on TYK2 kinase, 5.3 nM; on JAK2, 95 nM.
Taken in the same sequence, the figures for `CNS(=O)(=O)c1ccc(Nc2oc(-c3c(F)cccc3F)nc2C(N)=O)cc1` [Example 4, 2-(2,6-difluorophenyl)-5-(4-(N′-methylsulfamoyl)phenylamino)oxazole-4-carboxamide] were 65.6 nM, 387 nM, 13.8 nM and 109 nM.
In the same order, the values of `CN(C)C(=O)c1ccc(Nc2oc(-c3c(F)cccc3F)nc2C(N)=O)cc1` [Example 5, 2-(2,6-difluorophenyl)-5-(4-(dimethylcarbamoyl)phenylamino)oxazole-4-carboxamide] are 88.6 nM, 219 nM, 9.2 nM and 112 nM.
Taken in the same sequence, the figures for `NCCCNC(=O)c1ccc(Nc2oc(-c3c(F)cccc3F)nc2C(N)=O)cc1` [Example 6, 5-(4-((3-aminopropyl)carbamoyl)phenylamino)-2-(2,6-difluorophenyl)oxazole-4-carboxamide] were 192 nM, 472 nM, 25 nM and 297 nM.
Consider `NC(=O)c1nc(-c2c(F)cccc2F)oc1Nc1ccc(C(=O)N[C@@H]2CCCNC2)cc1` [Example 7, (R)-2-(2,6-difluorophenyl)-5-(4-(piperidin-3-ylcarbamoyl)phenylamino)oxazole-4-carboxamide], for which the IC50 at JAK1 is 202 nM; on JAK3, 419 nM; on TYK2 kinase, 9.8 nM; on JAK2, 261 nM.
Regarding `NC(=O)c1nc(-c2c(F)cccc2F)oc1Nc1ccc(C(=O)N[C@H]2CCCNC2)cc1` [Example 8, (S)-2-(2,6-difluorophenyl)-5-(4-(piperidin-3-ylcarbamoyl)phenylamino)oxazole-4-carboxamide], the IC50 at JAK1 turned out to be 201 nM; at JAK3 it was 408 nM; on TYK2 kinase, 12.9 nM; on JAK2 it was 268 nM.
Turning to `NC(=O)c1nc(-c2c(F)cccc2F)oc1Nc1ccc(C(=O)N2CCOCC2)cc1` [Example 9, 2-(2,6-difluorophenyl)-5-(4-(morpholine-4-carbonyl)phenylamino)oxazole-4-carboxamide], the half-inhibitory concentration (IC50) on JAK1 was determined as 75.6 nM; at JAK3, 423 nM; on TYK2 kinase, 22.7 nM; on JAK2, 267 nM.
Taken in the same sequence, the figures for `CNCCNC(=O)c1ccc(Nc2oc(-c3c(F)cccc3F)nc2C(N)=O)cc1` [Example 10, 5-(4-((2-(methylamino)ethyl)carbamoyl)phenylamino)-2-(2,6-difluorophenyl) oxazole-4-carboxamide] were 183 nM, 397 nM, 20.5 nM and 311 nM.
In the same order, the values of `CNCCCNC(=O)c1ccc(Nc2oc(-c3c(F)cccc3F)nc2C(N)=O)cc1` [Example 11, 5-(4-((3-(methylamino)propyl)carbamoyl)phenylamino)-2-(2,6-difluorophenyl) oxazole-4-carboxamide] are 190 nM, 388 nM, 15.1 nM and 338 nM.
Taken in the same sequence, the figures for `NC(=O)c1nc(-c2c(F)cccc2F)oc1Nc1ccc(C(=O)N[C@@H]2CCNC2)cc1` [Example 12, (R)-2-(2,6-difluorophenyl)-5-(4-(pyrrolidin-3-ylcarbamoyl)phenylamino)oxazole-4-carboxamide] were 169 nM, 346 nM, 23.4 nM and 292 nM.
In the case of `NC(=O)c1nc(-c2c(F)cccc2F)oc1Nc1ccc(C(=O)N[C@H]2CCNC2)cc1` [Example 13, (S)-2-(2,6-difluorophenyl)-5-(4-(pyrrolidin-3-ylcarbamoyl)phenylamino)oxazole-4-carboxamide], the IC50 was 123 nM at JAK1, 342 nM at JAK3, 11.2 nM on TYK2 kinase and 182 nM at JAK2.
Regarding `NC(=O)c1nc(-c2c(F)cccc2F)oc1Nc1ccc(C(=O)N2CCC[C@@H]2CO)cc1` [Example 14, (R)-2-(2,6-difluorophenyl)-5-(4-(2-(hydroxymethyl)pyrrolidine-1-carbonyl)phenylamino)oxazole-4-carboxamide], the IC50 at JAK1 came out at 67.2 nM; on JAK3, 126 nM; on TYK2 kinase, 9.6 nM; on JAK2 it was 36 nM.
Taken in the same sequence, the figures for `NC(=O)c1nc(-c2c(F)cccc2F)oc1Nc1ccc(C(=O)NCCO)cc1` [Example 15, 5-(4-((2-hydroxyethyl)carbamoyl)phenylamino)-2-(2,6-difluorophenyl)oxazole-4-carboxamide] were 41.1 nM, 195 nM, 7.5 nM and 101 nM.
With `NC(=O)c1nc(-c2c(F)cccc2F)oc1Nc1ccc(C(=O)NCCCO)cc1` [Example 16, 5-(4-((3-hydroxypropyl)carbamoyl)phenylamino)-2-(2,6-difluorophenyl)oxazole-4-carboxamide], the IC50 was 58.1 nM at JAK1, 199 nM on JAK3, 8.4 nM at TYK2 kinase and 119 nM on JAK2.
`NC(=O)c1nc(-c2c(F)cccc2F)oc1Nc1ccc(C(=O)NC2CCNCC2)cc1` [Example 17, 2-(2,6-difluorophenyl)-5-(4-(piperidin-4-ylcarbamoyl)phenylamino)oxazole-4-carboxamide]: the concentration for half-maximal inhibition (IC50) at JAK1 came to 153 nM; on JAK3 it was 99.2 nM; on TYK2 kinase it was 13.7 nM; on JAK2, 167 nM.
In the same order, the values of `CN1CCC(NC(=O)c2ccc(Nc3oc(-c4c(F)cccc4F)nc3C(N)=O)cc2)CC1` [Example 18, 5-(4-((1-methylpiperidin-4-yl)carbamoyl)phenylamino)-2-(2,6-difluorophenyl) oxazole-4-carboxamide] are 118 nM, 165 nM, 13.8 nM and 192 nM.
Taken in the same sequence, the figures for `CS(=O)(=O)c1ccc(Nc2oc(-c3c(Cl)cccc3Cl)nc2C(N)=O)cc1` [Example 19, 2-(2,6-Dichloro-phenyl)-5-(4-methanesulfonyl-phenylamino)-oxazole-4-carboxylic acid amide] were 21.9 nM, 214 nM, 2.3 nM and 87.7 nM.
In the same order, the values of `CS(=O)(=O)c1ccc(Nc2oc(-c3c(F)cccc3Cl)nc2C(N)=O)cc1` [Example 20, 2-(2-Chloro-6-fluoro-phenyl)-5-(4-methanesulfonyl-phenylamino)-oxazole-4-carboxylic acid amide] are 28.7 nM, 165 nM, 2.7 nM and 72.6 nM.
In the case of `CS(=O)(=O)c1ccc(Nc2oc(-c3c(F)cc(F)cc3F)nc2C(N)=O)cc1` [Example 21, 5-(4-Methanesulfonyl-phenylamino)-2-(2,4,6-trifluoro-phenyl)-oxazole-4-carboxylic acid amide], the IC50 on JAK1 was 241 nM; on JAK3 it was 2180 nM; at TYK2 kinase, 68.3 nM; on JAK2, 412 nM.
In the same order, the values of `CS(=O)(=O)c1ccc(Nc2oc(-c3cc(F)ccc3F)nc2C(N)=O)cc1` [Example 22, 2-(2,5-Difluoro-phenyl)-5-(4-methanesulfonyl-phenylamino)-oxazole-4-carboxylic acid amide] are 843 nM, 5500 nM, 183 nM and 663 nM.
